How the values were obtained:
[1] = medium not stated; cited from earlier work
[2] = test system: IL-2; assay: IL-2 production by PHA/PMA-stimulated mononuclear cells, ELISA (Example 7); assay type: cell-based; settings: human mononuclear cells, PHA + PMA, 48 h
Experimental: (§1) 200 ml of blood are taken and heparinised from healthy male and female volunteers. Mononuclear cells are isolated by Ficoll-Hypaque centrifugation and resuspended in a medium consisting of RPMI 1640 complemented by 5% autologous serum, […] of glutamine, […] of penicillin, 10 μg/ml of streptomycin, 10 μg/ml of phytohaemagglutinin (PHA), 10 μg/ml of phorbol myristate acetate (PMA) and test compounds as stated per individual experiment at a cellular density of 2,000,000 per ml. The cells are distributed in 96 well microtitre plates in 250 μl portions per well and incubated for 48 hours at 37° C. The supernatants are then harvested and the IL-2 and IL-5 concentrations quantified by a standard ELISA assay using a biotin/streptavidin system. By way of variant, PHA was replaced with 0.1 μg/ml of monoclonal antibodies directed against human CD3 in order to achieve more specific activation of the T cells.

[3] = test system: IL-5; assay: IL-5 production by PHA/PMA-stimulated mononuclear cells, ELISA (Example 7); assay type: cell-based; settings: human mononuclear cells, PHA + PMA, 48 h
Experimental: as §1

[4] = test system: tumour necrosis factor; settings: dose of 1 mmol; endotoxin-induced activation of alveolar macrophages; cited from earlier work

SMILES	half-life [1]	IL-2 inhibition (%) ([2]; 10 μM)	IL-2 inhibition (%) ([2]; 32 μM)	IL-5 inhibition (%) ([3]; 10 μM)	IL-5 inhibition (%) ([3]; 32 μM)	production of tumour necrosis factor [4]	inhibition at 10 µM ([2]; 10 μM)	inhibition at 32 µM ([2]; 32 μM)	inhibition at 10 µM ([3]; 10 μM)	inhibition at 32 µM ([3]; 32 μM)
CN(C)C(=O)N=NC(=O)N(C)C [A, 1,1′-azobisdimethylformamide]	only a few minutes	3%	28%	12%	29%	insignificant increase	–	–	–	–
O=C(N=NC(=O)N1CCCCC1)N1CCCCC1 [B, 1,1′-(azodicarbonyl)dipiperidine]	–	–	–	–	–	–	0.2%	11%	17%	39%
O=C(N=NC(=O)N1CCOCC1)N1CCOCC1 [C, 1,1′-(azodicarbonyl)dimorpholine]	–	6%	9%	37%	51%	–	–	–	–	–
